Test system: Bone Morphogenetic Protein 7 (BMP-7) expression in EP2 293S cells
Assay: Induction of BMP-7 expression (Northern blot) in 293S cells transfected with the EP2 receptor
Assay type: cell-based, human
Details: 10^−6M, RNA extracted at 8, 16 and 24 hours, Northern blot with 32P-labeled BMP-7 probe
Method: Methods: 293S and EP2 293S cells were grown in Dulbecco's Modified Egale medium (DMEM, Gibco, BRL; Gaithersburg, Md.). One day prior to treatment with PGE2or a prostaglandin agonist, cells were plated at a density of 1.5×10^6 cells /10 cm dish. […] Cells were harvested and RNA extracted at 8, 16 and 24 hours. Northern blot analysis of total ([…] ) was carried out by probing the blots with ^32P-labeled BMP-7 probe. The blots were normalized for RNA loading by hybridization with ^32P-labeled 18s ribosomal RNA probe. […] Given the known role of BMP-7 in kidney regeneration and the ability of a prostaglandin agonist to induce BMP-7 expression in 293S kidney cells in a time and receptor specific manner indicates a role for a prostaglandin agonist in kidney regeneration.

**Q.** Which “induction of the expression of BMP-7” value does the source give for `CCCCC[C@H](O)/C=C/[C@H]1[C@H](O)CC(=O)[C@@H]1C/C=C\CCCC(=O)O` [PGE2, prostaglandin E2] here?
**A.** The value was “in a time dependent manner induce the expression of BMP-7”.
